Laboratory results from patent US20240401058A1, “METHOD OF REGULATING PULMONARY ARTERY VASCULAR REMODELING” (THE TRUSTEES OF INDIANA UNIVERSITY, priority 2021, published 2024).

Legend:
Assay type in all cases: cell-based, human
hPASMC = assay: Cell proliferation rate in hPASMC following EMAP II treatment; conditions: inhibitor pretreatment, EMAP II 24 hours
Experimental: Cells were treated with EMAP II or vehicle, cells were rinsed at the desired time point, and lysis buffer was applied.

[1] = tested on: pSPHK2 in nuclear fractions of hPASMC; assay: Nuclear pSPHK2 in hPASMC after EMAP II treatment (immunoblot of nuclear fractions, immunofluorescence); conditions: inhibitor pretreatment, EMAP II 150 minutes
Experimental: Primary human pulmonary artery smooth muscle cells (hPASMC) purchased from Lonza (Walkersville, MD) were cultured in complete growth medium containing smooth muscle growth media-2 (SmGM-2) with 10% FBS and growth factors provided as a kit by the supplier (Lonza, (Walkersville, MD). Cells were cultured in a humidified atmosphere with 5% CO2 at 37° C. For all studies, passages 5-10 were used for hPASMCs. For treatment studies, subconfluent cells plated in multi-well plates were serum starved and if required, pretreated with inhibitors before stimulation with 2 μg/mL recombinant EMAP II. All the controls were handled similar to the test samples. Cells were treated with EMAP II or vehicle, cells were rinsed at the desired time point, and lysis buffer was applied.
After appropriate treatments, protein lysates were prepared by using RIPA buffer (for cells) or home-made lysis buffer (tissue) supplemented with phosphatase and protease inhibitors (Thermo Fisher Scientific). Alpha-tubulin or Vinculin was used as a loading control. For nuclear and cytoplasmic fractionation, NE-PER kit from Thermo Fischer Scientific was used. Western blots were performed according to standard methods and quantified using densitometry using Image Studio Lite software from LI-COR Biosciences. […]

nuclear S1P = assay: ELISA for S1P quantification in nuclear fractions of hPASMC; conditions: inhibitor pretreatment, EMAP II 15 or 150 minutes
Experimental: Equal number of hPASMC cells (15000/[…]) were plated and serum starved for overnight. Cells were pretreated with inhibitors if needed and stimulated for in a series of time points and collected the cells. Cells were pelleted out and washed with PBS. After the extraction of nuclear proteins, protein concentration was measured. S1P levels were measured using S1P ELISA kit (MyBioSource, MBS069092) following manufacturer's instructions. S1P levels were normalized against protein levels.

HDAC = HDAC assay in nuclear fractions of hPASMC; conditions: inhibitor pretreatment, EMAP II 150 minutes
Experimental: Equal number of hPASMC cells (15000/[…]) were plated and serum starved for overnight. Cells were pretreated with inhibitors and stimulated for the desired time points and collected. Cells were pelleted out and washed with PBS. After the extraction of nuclear proteins, protein concentration was measured. HDAC levels were measured using HDAC activity flurometric kit (Abcam, ab156064) following manufacturer's instructions. Free unbound HDAC levels were normalized against protein levels.

Ac-H3K9 = assay: CUT&RUN with acetylated H3K9 antibody in hPASMC; conditions: for EMAP II promoted hyperacetylation of H3K9 (Ac-H3K9 peaks): EMAP II 2-3 hours
Experimental: Cleavage Under Targets and Release Using Nuclease (CUT&RUN) was performed with hPASMC using CUTANA® protocol v1.6. For each condition, nuclei from two biological replicates were extracted by incubating cells on ice for 10 min in Nuclei Extraction buffer (NE: 20 mM HEPES-KOH, pH 7.9; 10 mM KCl; 0.1% Triton X-100; 20% Glycerol; 0.5 mM spermidine; 1× complete protease inhibitor (GoldBio), collecting by centrifugation (600 g, 3 min, 4° C.), discarding the supernatant, and resuspending at [100 μl/500K nuclei] sample in NE buffer. For each target 500K nuclei were immobilized onto Concanavalin-A beads (EpiCypher #21-1401) and incubated overnight (4° C. with gentle rocking) with 0.5 μg of antibody IgG (negative control), trimethylated H3K4 (positive control), Ac-H3K9 (all validated to SNAP-ChIP nucleosome standards). CUT&RUN enriched DNA was purified and used to prepare sequencing libraries with the Ultra II DNA Library Prep kit (New England Biolabs #E7645S). Libraries were sequenced on the Illumina NextSeq 550, obtaining ˜8 million paired end reads on average. The CUT&RUN paired reads were used for quality control using FASTQ Groomer (Galaxy Version 1.1.5) and paired ends were aligned against the GRCh38/hg38 reference genome assembly for human using bowtie2 (Galaxy Version 2.4.2+galaxy0). After quality-based filtering with SAM or BAM tools (Galaxy Version 1.8+galaxy1), MACS2 (Galaxy Version 2.1.1.20160309.6) was applied for CUT&RUN peak calling of Ac-H3K9 against the IgG control with genome size of 2.7e9 and then, DiffBind (Galaxy Version 2.10.0) was used to analyze the differential binding sites between the control and rEMAP II treated samples.

iPAH: PASMCs = assay: Cell proliferation rate of iPAH: PASMCs; conditions: iSPHK2 pretreatment 24 hours
Experimental: All studies involving human lung tissues and cells were conducted according to the Institutional review board of Indiana University School of Medicine. Deidentified archived tissues and pulmonary arterial smooth muscle cells (PASMCs) obtained from the Pulmonary Hypertension Breakthrough Initiative (PHBI) biorepository from patients with Idiopathic Pulmonary Arterial Hypertension (iPAH: Group 1 PH) at time of lung transplantation and patients without PH that were failed donor lungs (FDL).
Primary human PASMCs (hPASMCs), pulmonary microvascular endothelial cells (hPMVECs) purchased from Lonza (Walkersville, MD) and iPAH: PASMCs were cultured in complete growth medium or conditioned media in a humidified atmosphere or 1% O2 with 5% CO2 at 37° C. For all studies, passages 5-10 were used for hPASMCs and hPMVECs.

**Q.** With `Cc1cc(CS(=O)(=O)c2ccccc2)cc(OCc2ccc(CN3CCCC3CO)cc2)c1` (stereo not shown) [SPHK1 inhibitor, PF643] as the compound, how does the “EMAP II mediated cell proliferation” value (hPASMC) read?
**A.** The value was “blocked EMAPII mediated proliferation”.

**Q.** What does the source list for `O=C(NCc1ccncc1)C12CC3CC(C1)CC(c1ccc(Cl)cc1)(C3)C2` [SPHK2 inhibitor, ABC294640]?
**A.** EMAP II induced nuclear activation of SPHK2 (nuclear pSPHK2/lamin B) [1]: ablated the EMAP II induced nuclear activation of SPHK2; EMAP II induced nuclear activation of SPHK2 (nuclear pSPHK2/lamin B) ([1]; listed as iSPHK2): ablated the EMAPII induced nuclear activation of SPHK2; EMAP II generated nuclear S1P (nuclear S1P): suppressed EMAP II generated nuclear S1P expression; EMAP II generated nuclear S1P (nuclear S1P; listed as iSPHK2): suppressed EMAPII generated nuclear S1P expression; HDAC activity (HDAC): rescued decreased HDAC activity; HDAC activity (HDAC; listed as iSPHK2): rescued the loss of HDAC activity; HDAC activity (HDAC; listed as iSPHK2 inhibitor): rescued the loss of HDAC activity; EMAP II mediated cell proliferation (hPASMC): blocked EMAPII mediated proliferation; EMAP II mediated cell proliferation (hPASMC; listed as iSPHK2): rescued; differentially acetylated sites by EMAPII that are altered by iSPHK2 pretreatment (Ac-H3K9): 5554 sites; differentially acetylated upstream sites by EMAPII that are also altered by iSPHK2 pretreatment (Ac-H3K9): 755 sites; EMAP II promoted hyperacetylation of H3K9 (Ac-H3K9 peaks) (Ac-H3K9; inhibitor pretreatment): partially diminished EMAP II promoted hyperacetylation of H3K9; EMAP II promoted hyperacetylation of H3K9 (Ac-H3K9 peaks) (Ac-H3K9; inhibitor pretreatment, listed as iSPHK2): partially diminished EMAPII promoted hyperacetylation of H3K9; level of Ac-H3K9 regions in KLF4 (Ac-H3K9; inhibitor pretreatment, EMAPII treated): rescued the level of Ac-H3K9 regions in EMAPII treated cells; proliferation rate (iPAH: PASMCs): restoring regular proliferation rates in iPAH: PASMCs
